Data reported in patent publication US12187662B2, “FOXM1 inhibitor compositions and methods of using the same” (The Board of Trustees of the University of Illinois, priority 2018, dated 2025).
Where two headings read alike, the source gives them in different places.

Legend:
[1] = test system: MCF7 cells; test: Cell proliferation assay (WST-1), MCF7; assay type: cell-based, human; conditions: read-out: IC50 MCF7
Protocol: (§1) All cells were tested for mycoplasma using Real-Time PCR Mycoplasma Detection Kit (Akron Biotech, Boca Raton, FL).
(§2) All assays were performed in triplicate.

[2] = Pharmacokinetic studies in mice after single s.c. or oral dose
Protocol: For s.c. injection, each compound was dissolved in DMSO and then mixed with corn oil for a total injection volume of 100 μL (10% DSMO+90% corn oil) per mouse. For oral gavage, compounds were administered in a 200 μL formulation of 9/0.5/0.5/90 parts of PEG400/Tween80/Povidone/0.5% Carboxymethylcellulose. […] Compounds were quantified by LC-MS/MS at the University of Illinois Metabolomics Core Facility. The data were fitted to a non-compartment model.

[3] = test system: DT22 cells; test: Cell proliferation assay (WST-1), DT22; assay type: cell-based, human; conditions: Homo sapiens, DT-22, inhibition of cell proliferation
Protocol: as §1, §2

[4] = Homo sapiens, MCF7, inhibition of cell proliferation
[5] = inhibition of cell proliferation

| Compound | IC50 [1, 4] [µM] | other results |
| --- | --- | --- |
| OCC[N+]1(CCCCCCOc2ccc(C(=C3C4CC5CC(C4)CC3C5)c3ccc(OCCCCCC[N+]4(CCO)CCCCCC4)cc3)cc2)CCCCCC1 [NB-142, 1,1′-((((((5r,7r)-adamantan-2-ylidene)methylene)bis(4,1-phenylene))bis(oxy))bis(hexane-6,1-diyl))bis(1-(2-hydroxyethyl)azepan-1-ium) diiodide] | 2.4 | – |
| OCCN(CCO)CCCCCCOc1ccc(C(=C2C3CC4CC(C3)CC2C4)c2ccc(OCCCCCCN(CCO)CCO)cc2)cc1 [NB-131, 2,2′,2″,2″′-(((((((5r,7r)-adamantan-2-ylidene)methylene)bis(4,1-phenylene))bis(oxy))bis(hexane-6,1-diyl))bis(azanetriyl))tetrakis(ethan-1-ol)] | 0.9 | PK p.o. AUC0-48 ([2]; mice, 40 mg/kg p.o.): too low to measure |
| OCC[N+]1(CCCCCCOc2ccc(C(=C3C4CC5CC(C4)CC3C5)c3ccc(OCCCCCC[N+]4(CCO)CCCC4)cc3)cc2)CCCC1 [NB-140, 1,1′-((((((5r,7r)-adamantan-2-ylidene)methylene)bis(4,1-phenylene))bis(oxy))bis(hexane-6,1-diyl))bis(1-(2-hydroxyethyl)pyrrolidin-1-ium) diiodide] | 1.6 | – |
| c1cc(C(=C2C3CC4CC(C3)CC2C4)c2ccc(OCCCCCCCCN3CCCCCC3)cc2)ccc1OCCCCCCCCN1CCCCCC1 [NB-80, 1,1′-((((((5r,7r)-adamantan-2-ylidene)methylene)bis(4,1-phenylene))bis(oxy))bis(octane-8,1-diyl))bis(azepane)] | 2.7 | IC50 [3]: 3.4 µM |
| OC[C@@H]1CCCN1CCCCCCOc1ccc(C(=C2C3CC4CC(C3)CC2C4)c2ccc(OCCCCCCN3CCC[C@H]3CO)cc2)cc1 [NB-138, ((2S,2'S)-((((((5r,7r)-adamantan-2-ylidene)methylene)bis(4,1-phenylene))bis(oxy))bis(hexane-6,1-diyl))bis(pyrrolidine-1,2-diyl))dimethanol] | 0.7 | PK p.o. AUC0-48 ([2]; mice, 40 mg/kg p.o.): 1.84 µM·h; PK p.o. t1/2 ([2]; mice, 40 mg/kg p.o.): 25.0 h |
| C[N+]1(CCCCCCOc2ccc(C(=C3C4CC5CC(C4)CC3C5)c3ccc(OCCCCCC[N+]4(C)CCC4)cc3)cc2)CCC1 [NB-137, 1,1′-((((((5r,7r)-adamantan-2-ylidene)methylene)bis(4,1-phenylene))bis(oxy))bis(hexane-6,1-diyl))bis(1-methylazetidin-1-ium) diiodide] | 2.3 | – |
| c1cc(C(=C2C3CC4CC(C3)CC2C4)c2ccc(OCCCCCCN3CCC3)cc2)ccc1OCCCCCCN1CCC1 [NB-133, 1,1′-((((((5r,7r)-adamantan-2-ylidene)methylene)bis(4,1-phenylene))bis(oxy))bis(hexane-6,1-diyl))bis(azetidine)] | 0.8 | – |
| (S)-1-(6-(4-((Z)-((5S,7S)-adamantan-2-ylidene)(4-chlorophenyl)methyl)phenoxy)hexyl)-1-methyl-1λ^4-piperidin-2-ylium iodide [NB-84] | – | IC50 [1, 5]: 6 µM |
| CC1(O)CN(CCCCCCOc2ccc(C(=C3C4CC5CC(C4)CC3C5)c3ccc(OCCCCCCN4CC(C)(O)C4)cc3)cc2)C1 [NB-143, 1,1′-((((((5r,7r)-adamantan-2-ylidene)methylene)bis(4,1-phenylene))bis(oxy))bis(hexane-6,1-diyl))bis(3-methylazetidin-3-ol)] | 1.1 | – |
| CCN(CCO)CCCCCCOc1ccc(C(=C2C3CC4CC(C3)CC2C4)c2ccc(OCCCCCCN(CC)CCO)cc2)cc1 [NB-130, 2,2′-(((((((5r,7r)-adamantan-2-ylidene)methylene)bis(4,1-phenylene))bis(oxy))bis(hexane-6,1-diyl))bis(ethylazanediyl))bis(ethan-1-ol)] | 1.2 | PK p.o. AUC0-48 ([2]; mice, 40 mg/kg p.o.): too low to measure |
| OC1CCN(CCCCCCOc2ccc(C(=C3C4CC5CC(C4)CC3C5)c3ccc(OCCCCCCN4CCC(O)CC4)cc3)cc2)CC1 [NB-132, 1,1′-((((((5r,7r)-adamantan-2-ylidene)methylene)bis(4,1-phenylene))bis(oxy))bis(hexane-6,1-diyl))bis(piperidin-4-ol)] | 1.6 | – |
| C[N+]1(CCCCCCOc2ccc(C(=C3C4CC5CC(C4)CC3C5)c3ccc(OCCCCCC[N+]4(C)CCC(O)CC4)cc3)cc2)CCC(O)CC1 (centres unmarked) [NB-136, 1,1′-((((((5r,7r)-adamantan-2-ylidene)methylene)bis(4,1-phenylene))bis(oxy))bis(hexane-6,1-diyl))bis(4-hydroxy-1-methylpiperidin-1-ium) diiodide] | 1 | – |
| c1cn(CCCCCCOc2ccc(C(=C3C4CC5CC(C4)CC3C5)c3ccc(OCCCCCCn4ccnc4)cc3)cc2)cn1 [NB-61, 1,1′-((((((5r,7r)-adamantan-2-ylidene)methylene)bis(4,1-phenylene))bis(oxy))bis(hexane-6,1-diyl))bis(1H-imidazole)] | 7.5 | – |
| c1cc(C(=C2C3CC4CC(C3)CC2C4)c2ccc(OCCCCCN3CCCCCC3)cc2)ccc1OCCCCCN1CCCCCC1 [NB-123, 1,1′-((((((5r,7r)-adamantan-2-ylidene)methylene)bis(4,1-phenylene))bis(oxy))bis(pentane-5,1-diyl))bis(azepane)] | 1 | – |
| OCC[N+]1(CCCCCCOc2ccc(C(=C3C4CC5CC(C4)CC3C5)c3ccc(OCCCCCC[N+]4(CCO)CCCCC4)cc3)cc2)CCCCC1 [NB-141, 1,1′-((((((5r,7r)-adamantan-2-ylidene)methylene)bis(4,1-phenylene))bis(oxy))bis(hexane-6,1-diyl))bis(1-(2-hydroxyethyl)piperidin-1-ium) diiodide] | 3.6 | – |
| 1-(6-(4-((Z)-((5S,7S)-adamantan-2-ylidene)(4-chlorophenyl)methyl)phenoxy)hexyl)-1H-imidazole [NB-60] | – | IC50 [1, 5]: 16 µM |
| 1-(6-(4-((Z)-((5S,7S)-adamantan-2-ylidene)(4-chlorophenyl)methyl)phenoxy)hexyl)-4-methylpiperazine [NB-64] | – | IC50 [1, 5]: 3 µM |
| C[n+]1ccn(CCCCCCOc2ccc(C(=C3C4CC5CC(C4)CC3C5)c3ccc(Cl)cc3)cc2)c1 [NB-62, 1-(6-(4-((Z)-((5S,7S)-adamantan-2-ylidene)(4-chlorophenyl)methyl)phenoxy)hexyl)-3-methyl-1H-imidazol-3-ium iodide] | 5.5 | half-life ([2]; female, CD-1, mouse, plasma, sc, 40 mg/kg): 36.8 h; AUC(0-t) ([2]; female, CD-1, mouse, plasma, sc, 40 mg/kg, PK s.c. AUC0-48, mice, 40 mg/kg s.c.): 150 µM·h; PK p.o. AUC0-48 ([2]; mice, 40 mg/kg p.o.): too low to measure |
| c1cc(C(=C2C3CC4CC(C3)CC2C4)c2ccc(OCCCCN3CCCCCC3)cc2)ccc1OCCCCN1CCCCCC1 [NB-121, 1,1′-((((((5r,7r)-adamantan-2-ylidene)methylene)bis(4,1-phenylene))bis(oxy))bis(butane-4,1-diyl))bis(azepane)] | 1.6 | – |
| C[N+](CCO)(CCO)CCCCCCOc1ccc(C(=C2C3CC4CC(C3)CC2C4)c2ccc(OCCCCCC[N+](C)(CCO)CCO)cc2)cc1 [NB-135, 6,6′-(((((5r,7r)-adamantan-2-ylidene)methylene)bis(4,1-phenylene))bis(oxy))bis(N,N-bis(2-hydroxyethyl)-N-methylhexan-1-aminium) diiodide] | 2.1 | – |
| C[N+]1(CCCCCCOc2ccc(C(=C3C4CC5CC(C4)CC3C5)c3ccc(OCCCCCC[N+]4(C)CCC[C@H]4CO)cc3)cc2)CCC[C@H]1CO (stereo partly drawn) [NB-139, (1R,1′R,2S,2'S)-1,1′-((((((5r,7r)-adamantan-2-ylidene)methylene)bis(4,1-phenylene))bis(oxy))bis(hexane-6,1-diyl))bis(2-(hydroxymethyl)-1-methylpyrrolidin-1-ium) diiodide] | 0.9 | – |
| 1-(6-(4-((Z)-((5S,7S)-adamantan-2-ylidene)(4-chlorophenyl)methyl)phenoxy)hexyl)-1-methylazepan-1-ium iodide [NB-85] | – | IC50 [1, 5]: 9.8 µM |
| CC1(O)C[N+](C)(CCCCCCOc2ccc(C(=C3C4CC5CC(C4)CC3C5)c3ccc(OCCCCCC[N+]4(C)CC(C)(O)C4)cc3)cc2)C1 (centres unmarked) [NB-144, 1,1′-((((((5r,7r)-adamantan-2-ylidene)methylene)bis(4,1-phenylene))bis(oxy))bis(hexane-6,1-diyl))bis(3-hydroxy-1,3-dimethylazetidin-1-ium) diiodide] | 1.8 | – |
| CN1CC[N+](C)(CCCCCCOc2ccc(C(=C3C4CC5CC(C4)CC3C5)c3ccc(OCCCCCC[N+]4(C)CCN(C)CC4)cc3)cc2)CC1 [NB-69, 1,1′-((((((5r,7r)-adamantan-2-ylidene)methylene)bis(4,1-phenylene))bis(oxy))bis(hexane-6,1-diyl))bis(1,4-dimethylpiperazin-1-ium) dimethanesulfonate] | 6 | – |
| c1cc(C(=C2C3CC4CC(C3)CC2C4)c2ccc(OCCCCCN3CCCCC3)cc2)ccc1OCCCCCN1CCCCC1 [NB-122, 1,1′-((((((5r,7r)-adamantan-2-ylidene)methylene)bis(4,1-phenylene))bis(oxy))bis(pentane-5,1-diyl))dipiperidine] | 1.2 | – |
| Clc1ccc(C(=C2C3CC4CC(C3)CC2C4)c2ccc(OCCCCCCN3CCCCC3)cc2)cc1 [NB-118, 1-(6-(4-((Z)-((5S,7S)-Adamantan-2-ylidene)(4-chlorophenyl)methyl)phenoxy)hexyl)piperidine] | 4.4 | – |
| OC1CN(CCCCCCOc2ccc(C(=C3C4CC5CC(C4)CC3C5)c3ccc(OCCCCCCN4CC(O)C4)cc3)cc2)C1 [NB-145, 1,1′-((((((5r,7r)-adamantan-2-ylidene)methylene)bis(4,1-phenylene))bis(oxy))bis(hexane-6,1-diyl))bis(azetidin-3-ol)] | 0.9 | PK p.o. AUC0-48 ([2]; mice, 40 mg/kg p.o.): too low to measure |
| c1cc(C(=C2C3CC4CC(C3)CC2C4)c2ccc(OCCCCN3CCCCC3)cc2)ccc1OCCCCN1CCCCC1 [NB-120, 1,1′-((((((5r,7r)-adamantan-2-ylidene)methylene)bis(4,1-phenylene))bis(oxy))bis(butane-4,1-diyl))dipiperidine] | 0.9 | – |
| Clc1ccc(C(=C2C3CC4CC(C3)CC2C4)c2ccc(OCCCCCCN3CCCCCC3)cc2)cc1 [NB-119, 1-(6-(4-((Z)-((5S,7S)-Adamantan-2-ylidene)(4-chlorophenyl)methyl)phenoxy)hexyl)azepane] | 4.2 | – |
